From PubChem BioAssay AID328 (DTP/NCI, 2004)
Values joined by “and” are separate entries in the source; they are usually repeats but may differ in a detail not shown here. Identical values can stand only once. Inconclusive results and toxic doses are left out.

System: BDF1 mice, P388 leukemia ip, median survival T/C
Test: NCI In Vivo Anticancer Drug Screen. Data for tumor model P388 Leukemia (intraperitoneal) in B6D2F1 (BDF1) mice
Settings: endpoint: median survival time, higher = longer survival
Procedure, shortened: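 Transplantable tumour in mice; compound vs vehicle dosing; survival scored; ratio of treated to control reported.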

[1] = dose: 12.5 mg/kg/injection, schedule: Q01DX009 (ip), vehicle: saline with Tween-80
[2] = dose: 12.5 mg/kg/injection, schedule: Q01DX009 (ip), vehicle: saline
[3] = dose: 25.0 mg/kg/injection, schedule: Q01DX009 (ip), vehicle: saline with Tween-80
[4] = dose: 25.0 mg/kg/injection, schedule: Q01DX009 (ip), vehicle: saline
[5] = dose: 50.0 mg/kg/injection, schedule: Q01DX009 (ip), vehicle: saline with Tween-80
[6] = dose: 50.0 mg/kg/injection, schedule: Q01DX009 (ip), vehicle: saline
[7] = dose: 100.0 mg/kg/injection, schedule: Q01DX009 (ip), vehicle: saline with Tween-80
[8] = dose: 50.0 mg/kg/injection, schedule: Q01DX005 (ip), vehicle: saline with Tween-80
[9] = dose: 100.0 mg/kg/injection, schedule: Q01DX005 (ip), vehicle: saline with Tween-80
[10] = dose: 200.0 mg/kg/injection, schedule: Q01DX005 (ip), vehicle: saline with Tween-80
[11] = dose: 25.0 mg/kg/injection, schedule: Q04DX003 (ip), vehicle: saline
[12] = dose: 50.0 mg/kg/injection, schedule: Q04DX003 (ip), vehicle: saline
[13] = dose: 100.0 mg/kg/injection, schedule: Q04DX003 (ip), vehicle: saline
[14] = dose: 200.0 mg/kg/injection, schedule: Q01DX009 (ip), vehicle: saline with Tween-80
[15] = dose: 400.0 mg/kg/injection, schedule: Q01DX009 (ip), vehicle: saline with Tween-80

Structure (SMILES): CC(C)(C)c1cc(I)c(O)c(CN)c1
- T/C [1]: 105 % of control
- T/C [2]: 95 % of control
- T/C [3]: 109 % of control
- T/C [4]: 104 % of control
- T/C [5]: 114 % of control
- T/C [6]: 104 % of control
- T/C [7]: 114 % of control

Structure (SMILES): O=C1Cc2cc(=C(c3ccccc3)c3ccccc3)ccc2=C1c1ccccc1
- T/C [8]: 93 % of control
- T/C [9]: 96 % of control
- T/C [10]: 91 % of control

Structure (SMILES): O=C1NC(c2ccccc2)(c2ccccc2)C(=O)N1CCN(CCCl)CCCl
- T/C (dose: 6.1 mg/kg/injection, schedule: Q04DX003 (ip), vehicle: saline with Tween-80): 100 % of control
- T/C (dose: 14.0 mg/kg/injection, schedule: Q04DX003 (ip), vehicle: saline): 150 % of control
- T/C (dose: 21.0 mg/kg/injection, schedule: Q04DX003 (ip), vehicle: saline): 190 % of control
- T/C (dose: 33.0 mg/kg/injection, schedule: Q04DX003 (ip), vehicle: saline with Tween-80): 154 % of control and 168 % of control
- T/C (dose: 50.0 mg/kg/injection, schedule: Q04DX003 (ip), vehicle: saline with Tween-80): 181 % of control and 200 % of control

Structure (SMILES): Cn1c2ccccc2c(=S)c2c(O)cc3c(c21)C=CC(C)(C)O3
- T/C [8]: 89 % of control
- T/C [9]: 90 % of control
- T/C [10]: 89 % of control

Structure (SMILES): O=C1c2ccccc2CCCC1N1CCOCC1 (stereo not given)
- T/C (dose: 100.0 mg/kg/injection, schedule: Q04DX003 (ip), vehicle: saline with Tween-80): 100 % of control
- T/C (dose: 200.0 mg/kg/injection, schedule: Q04DX003 (ip), vehicle: saline with Tween-80): 90 % of control
- T/C (dose: 400.0 mg/kg/injection, schedule: Q04DX003 (ip), vehicle: saline with Tween-80): 90 % of control

Structure (SMILES): CCOC(=O)c1ccc(NC(=O)CCl)cc1
- T/C (dose: 6.25 mg/kg/injection, schedule: Q01DX010 (ip), vehicle: saline): 104 % of control
- T/C (dose: 12.5 mg/kg/injection, schedule: Q01DX010 (ip), vehicle: saline): 100 % of control
- T/C (dose: 25.0 mg/kg/injection, schedule: Q01DX010 (ip), vehicle: saline): 100 % of control
- T/C (dose: 50.0 mg/kg/injection, schedule: Q01DX010 (ip), vehicle: saline): 100 % of control

Structure (SMILES): C=Cn1ccnc1C.C=Cn1ccnc1C.CC(=O)CC(C)=O.CC(=O)CC(C)=O.[Co]
- T/C (dose: 12.5 mg/kg/injection, schedule: Q04DX003 (ip), vehicle: saline): 106 % of control
- T/C [11]: 106 % of control
- T/C [12]: 117 % of control

Structure (SMILES): CCN1CCC(OC(=O)c2ccccc2)(c2nccc3ccccc23)CC1
- T/C [1]: 102 % of control
- T/C [3]: 111 % of control
- T/C [5]: 124 % of control

Structure (SMILES): CC1CN(c2ccc([N+](=O)[O-])cc2)C(C)CN1 (stereo not given)
- T/C [11]: 100 % of control
- T/C [12]: 110 % of control
- T/C [13]: 90 % of control

Structure (SMILES): NC(=S)N/N=C\c1nnc(N)s1
- T/C [5]: 90 % of control

Structure (SMILES): CC1=Cc2ccc(C)cc2C(=O)C1=O
- T/C (dose: 3.13 mg/kg/injection, schedule: Q01DX009 (ip), vehicle: Klucel (hydroxypropylcellulose) (HPC)): 102 % of control
- T/C (dose: 6.25 mg/kg/injection, schedule: Q01DX009 (ip), vehicle: Klucel (hydroxypropylcellulose) (HPC)): 108 % of control

Structure (SMILES): C/C=C/C1=C(Cl)C(=O)[C@@H](Cl)[C@@]1(O)C(=O)OC
- T/C (dose: 0.31 mg/kg/injection, schedule: Q01DX009 (ip), vehicle: saline with Tween-80): 106 % of control
- T/C (dose: 0.63 mg/kg/injection, schedule: Q01DX009 (ip), vehicle: saline with Tween-80): 115 % of control
- T/C (dose: 1.25 mg/kg/injection, schedule: Q01DX009 (ip), vehicle: saline with Tween-80): 106 % of control and 117 % of control
- T/C (dose: 2.5 mg/kg/injection, schedule: Q01DX001 (ip), vehicle: saline with Tween-80): 106 % of control
- T/C (dose: 2.5 mg/kg/injection, schedule: Q04DX003 (ip), vehicle: saline with Tween-80): 105 % of control
- T/C (dose: 4.4 mg/kg/injection, schedule: Q01DX009 (ip), vehicle: saline with Tween-80): 121 % of control
- T/C (dose: 5.0 mg/kg/injection, schedule: Q01DX001 (ip), vehicle: saline with Tween-80): 101 % of control
- T/C (dose: 5.0 mg/kg/injection, schedule: Q04DX003 (ip), vehicle: saline with Tween-80): 110 % of control
- T/C (dose: 6.6 mg/kg/injection, schedule: Q01DX009 (ip), vehicle: saline with Tween-80): 122 % of control
- T/C (dose: 8.8 mg/kg/injection, schedule: Q01DX009 (ip), vehicle: saline with Tween-80): 114 % of control
- T/C (dose: 10.0 mg/kg/injection, schedule: Q01DX001 (ip), vehicle: saline with Tween-80): 108 % of control
- T/C (dose: 10.0 mg/kg/injection, schedule: Q04DX003 (ip), vehicle: saline with Tween-80): 108 % of control
- T/C (dose: 13.3 mg/kg/injection, schedule: Q01DX009 (ip), vehicle: saline with Tween-80): 123 % of control
- T/C (dose: 17.0 mg/kg/injection, schedule: Q01DX001 (ip), vehicle: saline with Tween-80): 119 % of control
- T/C (dose: 20.0 mg/kg/injection, schedule: Q01DX001 (ip), vehicle: saline with Tween-80): 112 % of control

Structure (SMILES): O=C(O)c1ccc(C2CC2)cc1
- T/C [7]: 95 % of control
- T/C [14]: 90 % of control
- T/C [15]: 90 % of control

Structure (SMILES): COc1cc([C@@H]2c3cc4c(c(O)c3C[C@H]3COC(=O)[C@@H]32)OCO4)cc(OC)c1OC
- T/C (dose: 0.5 mg/kg/injection, schedule: Q01DX001 (ip), vehicle: other): 115 % of control
- T/C (dose: 0.5 mg/kg/injection, schedule: Q01DX001 (ip), vehicle: saline): 90 % of control
- T/C (dose: 0.5 mg/kg/injection, schedule: Q01DX010 (ip), vehicle: other): 122 % of control
- T/C (dose: 1.0 mg/kg/injection, schedule: Q01DX001 (ip), vehicle: other): 121 % of control
- T/C (dose: 1.0 mg/kg/injection, schedule: Q01DX001 (ip), vehicle: saline): 109 % of control
- T/C (dose: 1.0 mg/kg/injection, schedule: Q01DX010 (ip), vehicle: other): 150 % of control
- T/C (dose: 2.0 mg/kg/injection, schedule: Q01DX001 (ip), vehicle: saline): 118 % of control
- T/C (dose: 2.0 mg/kg/injection, schedule: Q01DX010 (ip), vehicle: other): 168 % of control
- T/C (dose: 2.0 mg/kg/injection, schedule: Q01DX010 (ip), vehicle: saline): 104 % of control
- T/C (dose: 4.0 mg/kg/injection, schedule: Q01DX001 (ip), vehicle: saline): 118 % of control

Structure (SMILES): O=C1CN(N2C(=O)CSC2C23CC4CC(CC(C4)C2)C3)C(=O)CN1c1ccccc1 (stereo not given)
- T/C [5]: 92 % of control
- T/C [7]: 92 % of control

Structure (SMILES): CNC(CNC(CO)CC(C)C)Cc1ccc(OCc2ccccc2)cc1 (stereo not given)
- T/C [2]: 104 % of control
- T/C [4]: 100 % of control

Structure (SMILES): CN(C)c1ccc(C(=O)O)cn1
- T/C [6]: 100 % of control
- T/C (dose: 100.0 mg/kg/injection, schedule: Q01DX009 (ip), vehicle: saline): 101 % of control
- T/C [13]: 102 % of control
- T/C (dose: 200.0 mg/kg/injection, schedule: Q01DX007 (ip), vehicle: saline): 110 % of control
- T/C (dose: 200.0 mg/kg/injection, schedule: Q01DX009 (ip), vehicle: saline): 92 % of control
- T/C (dose: 200.0 mg/kg/injection, schedule: Q04DX003 (ip), vehicle: saline): 100 % of control
- T/C (dose: 300.0 mg/kg/injection, schedule: Q01DX007 (ip), vehicle: saline): 108 % of control
- T/C (dose: 400.0 mg/kg/injection, schedule: Q01DX007 (ip), vehicle: saline): 100 % of control
- T/C (dose: 400.0 mg/kg/injection, schedule: Q04DX003 (ip), vehicle: saline): 109 % of control
- T/C (dose: 500.0 mg/kg/injection, schedule: Q01DX007 (ip), vehicle: saline): 106 % of control
- T/C (dose: 600.0 mg/kg/injection, schedule: Q01DX007 (ip), vehicle: saline): 110 % of control

Structure (SMILES): O=C1NCCS1
- T/C (dose: 100.0 mg/kg/injection, schedule: Q04DX003 (ip), vehicle: saline sonified): 90 % of control
- T/C (dose: 200.0 mg/kg/injection, schedule: Q04DX003 (ip), vehicle: saline sonified): 90 % of control
- T/C (dose: 400.0 mg/kg/injection, schedule: Q04DX003 (ip), vehicle: saline sonified): 95 % of control

Structure (SMILES): COc1ccc2c(c1)CCC1C2=CC(=O)/C1=C\[O-].COc1ccc2c(c1)CCC1C2=CC(=O)/C1=C\[O-].[Cu+2] (stereo not given)
- T/C (dose: 12.5 mg/kg/injection, schedule: Q04DX003 (ip), vehicle: saline with Tween-80): 113 % of control
- T/C (dose: 25.0 mg/kg/injection, schedule: Q04DX003 (ip), vehicle: saline with Tween-80): 109 % of control

Structure (SMILES): CN(C(=O)/C=C/C(=O)O)c1ccccc1
- T/C [3]: 109 % of control
- T/C [5]: 109 % of control
- T/C [7]: 109 % of control
- T/C [14]: 113 % of control
- T/C [15]: 100 % of control
